For the experiment, the target named is Muscarinic acetylcholine receptor M1 (Oryctolagus cuniculus). As to the kind of experiment: Efficacy at muscarinic acetylcholine receptor M1 measured by the ability to inhibit the electrically stimulated twitch of the rabbit vas deferens.

With `CCCCCCSc1nsnc1C1=CCCN(C)C1` [5-(4-Hexylsulfanyl-[1,2,5]thiadiazol-3-yl)-1-methyl-1,2,3,6-tetrahydro-pyridine; oxalic acid], the 50% inhibitory concentration (IC50) is 1 pM.
